From patent US9034922B2, “Composition for maintaining function of platelets” (THE UNIVERSITY OF TOKYO, priority 2010, dated 2015)

Assays:
[1] = test system: human peripheral blood-derived platelets (ADAM17-mediated GPIbα shedding); assay: Function-maintaining effect on human peripheral blood-derived washed platelets with CCCP (flow cytometry CD41/CD42b); type: cell-based; settings: Test Example 13; 100 μM CCCP, 37° C., 24 hours; S-45457 50 μM, S-45282 5 μM, p38 inhibitors 40 μM
Experimental: Specifically, according to <Protocol 2> illustrated in FIG. 6, first, ACD was added to human peripheral blood obtained by collecting blood at a ratio of 1:10, and centrifuged at 900 rpm for 10 minutes without a break. The supernatant obtained by the centrifugation was further centrifuged at 1500 rpm for 10 minutes without a break, and then the supernatant was removed. The precipitate thus obtained was suspended in a Tyrode-HEPES buffer (not containing calcium). The number of platelets in the suspension was counted, and the suspension (Washed Platelet) was adjusted to contain 5×10^7 to 1×10^8 of platelets/200 μL of the Tyrode-HEPES buffer (not containing calcium). […] After incubation at 37° C. for 24 hours, the numbers of CD41(+)CD42b(+) and CD41(+)CD42b(−) were counted by flow cytometry.
After incubation at 37° C. for 24 hours, a dot plot analysis on CD41(+) and CD42b(+) was conducted by flow cytometry.
After incubation at 37° C. for 24 hours and flow cytometry analysis, a percentage of CD41(+)CD42b(+) in the platelets was calculated.
After incubation at 37° C. for 24 hours, a total number of platelets and the number of CD42b(+) were counted by flow cytometry, and percentage of CD42b(+) in the platelets was calculated.
After incubation at 37° C. for 24 hours, by flow cytometry, a dot plot analysis on CD41(+) and CD42b(+) was conducted.

[2] = biological target: T1, Matrix metalloproteinase 1 (MMP-1) (Homo sapiens, UniProt P03956); assay: Enzyme inhibition experiment, MMP-1; type: biochemical; settings: 444221 substrate, 37° C., 5 hours
T1 construct: purchased Calbiochem 444208
T1 sequence (P03956 100-469): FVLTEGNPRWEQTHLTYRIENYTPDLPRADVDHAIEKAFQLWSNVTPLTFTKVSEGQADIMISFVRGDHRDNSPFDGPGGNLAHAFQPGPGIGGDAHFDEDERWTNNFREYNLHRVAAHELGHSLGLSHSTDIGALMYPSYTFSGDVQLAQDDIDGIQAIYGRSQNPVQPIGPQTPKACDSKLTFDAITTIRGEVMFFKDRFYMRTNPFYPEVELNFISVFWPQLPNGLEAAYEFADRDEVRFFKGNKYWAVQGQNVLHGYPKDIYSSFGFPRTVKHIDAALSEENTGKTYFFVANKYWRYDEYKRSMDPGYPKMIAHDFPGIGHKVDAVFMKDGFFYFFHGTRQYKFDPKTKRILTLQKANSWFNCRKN
Experimental: (§1) The enzyme reaction was carried out using the enzymes and substrates. Specifically, if necessary, the enzyme was activated in advance with APMA (final concentration 1 mmol/L, p-aminophenylmercuric acetate, manufactured by Sigma-Aldrich Co., A9563) according to information from the manufacturer. Then, in a 96-well plate for fluorescence measurement, 90 μL of an enzyme solution prepared with Assay Buffer A (50 mmol/L Tris-HCl buffer (pH 7.5) containing 200 mmol/L sodium chloride, 5 mmol/L calcium chloride, 10 μmol/L zinc sulfate, and 2 mg/mL bovine serum albumin) was mixed with 90 μL of the substrate adjusted to be 20 μmol/L with Assay Buffer B (50 mmol/L Tris-HCl buffer (pH 7.5) containing 200 mmol/L sodium chloride, 5 mmol/L calcium chloride, 10 μmol/L zinc sulfate, and 0.05% PLURONIC F-68), and incubated for reaction at 25° C. or 37° C. for several hours. Moreover, the fluorescence intensities before and after the reaction were measured using a fluorometer to determine the enzyme activity. An inhibition rate was obtained based on the enzyme activities in the presence and absence of the test substances, and the 50% inhibitory concentration (IC50) was calculated.

[3] = biological target: T2, TACE expressed on the macrophage-like cells (THP-1) (Homo sapiens, UniProt P78536); assay: Cellular TACE inhibition experiment (LPS-induced TNF-α production in PMA-differentiated THP-1 cells); type: cell-based; settings: for IC50: THP-1 macrophage-like cells, LPS 1 μg/mL, 6 hours, read-out: IC50 TNFα production
T2 construct: host or cells: THP-1 cells differentiated with PMA into macrophage-like cells
T2 sequence (P78536 215-824): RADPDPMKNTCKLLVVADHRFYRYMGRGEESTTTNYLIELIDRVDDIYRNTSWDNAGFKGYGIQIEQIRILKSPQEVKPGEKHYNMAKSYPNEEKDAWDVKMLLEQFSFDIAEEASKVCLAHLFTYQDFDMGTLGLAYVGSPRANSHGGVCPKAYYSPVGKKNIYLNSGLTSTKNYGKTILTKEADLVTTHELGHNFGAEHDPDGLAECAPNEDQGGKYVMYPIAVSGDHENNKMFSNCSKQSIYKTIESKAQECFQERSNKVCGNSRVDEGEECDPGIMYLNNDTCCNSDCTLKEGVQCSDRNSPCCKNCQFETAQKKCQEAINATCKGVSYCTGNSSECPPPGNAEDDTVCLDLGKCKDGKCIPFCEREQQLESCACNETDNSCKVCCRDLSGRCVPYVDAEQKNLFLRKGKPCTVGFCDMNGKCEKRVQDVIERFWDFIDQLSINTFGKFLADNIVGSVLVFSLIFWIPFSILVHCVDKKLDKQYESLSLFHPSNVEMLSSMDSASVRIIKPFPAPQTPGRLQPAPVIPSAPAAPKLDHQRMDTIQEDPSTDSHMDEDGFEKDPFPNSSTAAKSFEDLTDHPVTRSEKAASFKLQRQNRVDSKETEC
Experimental: After the differentiation, the medium was discarded, and the cells were washed with THP-1 washing buffer (RPMI 1640, 20 mM HEPES-NaOH (pH 7.4)). After the washing of the cells, a THP-1 assay buffer (RPMI 1640, 20 mmol/L HEPES-NaOH (pH 7.4), 0.01 w/v % PF-68, 10 v/v % FBS) was added thereto at 100 μL/well. Then, a THP-1 assay buffer containing the test substance (I-1 or 1-4) was further added at 50 μL/well and mixed by tapping. After incubation in a CO2 incubator for 30 to 45 minutes, a THP-1 assay buffer containing LPS was added at 50 μL/well (the final concentration of LPS was 1 μg/mL). Further, the plate was tapped for mixing, followed by incubation in the CO2 incubator for 6 hours. After the incubation was finished, human TNF-α concentration in the culture supernatant was measured with a commercially available kit (Human TNF-α CytoSet (manufactured by BIOSOURCE) or Human TNF-α Ready-Set-Go! (manufactured by eBioscience, Inc.)).

[4] = biological target: T3, Matrix metalloproteinase 13 (MMP-13) (Homo sapiens, UniProt P45452); assay: Enzyme inhibition experiment, MMP-13; type: biochemical; settings: 444221 substrate, 37° C., 4 hours
T3 construct: purchased Chemicon CC068
Experimental: Matrix metalloproteinase 13 (MMP-13) (manufactured by Chemicon, product number: CC068)
as §1, with “activity.” for “activity. An inhibition rate was obtained based on the enzyme activities in the presence and absence of the test substances, and the 50% inhibitory concentration (IC50) was calculated.”

[5] = biological target: T4, Matrix metalloproteinase 9 (MMP-9) (Homo sapiens, UniProt P14780); assay: Enzyme inhibition experiment, MMP-9; type: biochemical; settings: 444221 substrate, 37° C., 4 hours
T4 construct: purchased Calbiochem 444231
T4 sequence (P14780 94-707): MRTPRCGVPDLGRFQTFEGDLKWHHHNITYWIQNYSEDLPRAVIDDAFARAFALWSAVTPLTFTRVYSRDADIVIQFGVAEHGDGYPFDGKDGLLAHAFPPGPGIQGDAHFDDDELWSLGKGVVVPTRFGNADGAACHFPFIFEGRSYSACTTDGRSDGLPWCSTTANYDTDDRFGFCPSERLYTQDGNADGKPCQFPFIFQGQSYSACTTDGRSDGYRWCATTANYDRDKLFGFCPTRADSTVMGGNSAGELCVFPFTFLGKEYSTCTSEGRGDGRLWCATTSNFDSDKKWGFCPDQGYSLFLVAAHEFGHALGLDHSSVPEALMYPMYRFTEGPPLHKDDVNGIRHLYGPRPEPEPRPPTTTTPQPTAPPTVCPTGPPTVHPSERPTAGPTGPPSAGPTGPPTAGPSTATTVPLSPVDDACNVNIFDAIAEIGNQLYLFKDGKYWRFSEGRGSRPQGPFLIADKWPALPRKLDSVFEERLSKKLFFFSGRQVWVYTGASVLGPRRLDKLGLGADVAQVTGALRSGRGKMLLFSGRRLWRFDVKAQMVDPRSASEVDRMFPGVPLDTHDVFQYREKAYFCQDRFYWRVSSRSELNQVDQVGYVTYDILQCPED
Experimental: as §1, with “activity.” for “activity. An inhibition rate was obtained based on the enzyme activities in the presence and absence of the test substances, and the 50% inhibitory concentration (IC50) was calculated.”

[6] = test system: human peripheral blood PRP (platelet-rich plasma); assay: Function-maintaining effect on human peripheral blood PRP (flow cytometry CD41/CD42b); type: cell-based; settings: Test Example 12; 37° C., 24 hours or 72 hours; S-45457 50 μM, S-45282 5 μM, p38 inhibitors 40 μM
[7] = test system: ES cell-derived platelets (ADAM17-mediated GPIbα shedding); assay: Function-maintaining effect on ES cell-derived platelets in culture system (flow cytometry CD41/CD42b, platelet count)
Experimental: As human ES cells (hES cells), a KhES cell line (KhES-3) established by and provided from Institute for Frontier Medical Sciences, Kyoto University was used.
The human ES cells or the human iPS cells were seeded on the feeder cells such that the cell count was 5×10^4 to 1×10^5/10-cm dish. The cells were cultured in Iscove's Modified Dulbecco's Medium (IMDM, manufactured by Invitrogen Corp/GIBCO) supplemented with 15% FBS (product name: CELLect™ GOLD, manufactured by ICN Biomedicals Inc.), 2 mM L-glut amine (manufactured by Invitrogen Corp.), ITS supplement (10 μg/ml insulin, 5.5 mg/ml human transferrin, 5 ng/ml sodium selenite) (manufactured by Sigma-Aldrich Co.), 50 μg/ml ascorbic acid (Sigma-Aldrich Co.), 0.45 mM α-monothioglycerol (MTG, manufactured by Sigma-Aldrich Co.), and 20 ng/ml vascular endothelial growth factor (VEGF, manufactured by R&D Systems, Inc.). Further, this culturing was carried out at 37° C. in 5% CO2 and 21% O2 (atmospheric oxygen) using a CO2 incubator (product name: HERA CELL 150i, manufactured by Thermo Fisher Scientific K. K.). Then, the medium was replaced every 3 days, and the culturing was continued under the conditions until Day 15 when a large number of sac structures (sac-like structures) containing hematopoietic progenitor cells therein were observed.
Next, after detached from the dish, the sac structures were disrupted and suspended in a 3% FBS-containing phosphate buffer solution (PBS). Then, the suspension was passed through a 40-μm cell strainer (manufactured by BD). The solution thus passed through was centrifuged at 440×g for 10 minutes to collect hematopoietic progenitor cells, and the cells was counted. The hematopoietic progenitor cells were seeded on 10T1/2 cells newly prepared in a 6-well plate (6×10^5 cells/plate) exposed to 50-Gy radiation such that the number of the hematopoietic progenitor cells was 2 to 3×10^4/well. The hematopoietic progenitor cells were further cultured for 8 days in IMDM (manufactured by Invitrogen Corp/GIBCO) supplemented with 15% FBS (product name: CELLect™ GOLD, manufactured by ICN Biomedicals Inc.), 2 mM L-glutamine (manufactured by Invitrogen Corp.), ITS supplement (10 μg/ml insulin, 5.5 mg/ml transferrin, 5 ng/ml sodium selenite) (manufactured by Sigma-Aldrich Co.), 50 μg/ml ascorbic acid (manufactured by Sigma-Aldrich Co.), 0.45 mM MTG (manufactured by Sigma-Aldrich Co.), 100 ng/ml human thrombopoietin (human TPO, manufactured by PeproTech, Inc.), 50 ng/ml human stem cell factor (SCF, manufactured by PeproTech, Inc.), and 25 U/ml heparin. Thereby, megakaryocytes/platelets were induced.
Subsequently, the induced megakaryocytes/platelets were collected with an anticoagulant solution (Acid Citrate Dextrose, ACD), followed by centrifugation at 900 rpm for 10 minutes without a break. The supernatant obtained by the centrifugation was further centrifuged at 1500 rpm for 10 minutes without a break to remove the supernatant. Thereafter, the numbers of megakaryocytes and platelets in the precipitate thus obtained were analyzed by flow cytometry using antibodies for staining.
Note that, in the flow cytometry, FACS Aria manufactured by Becton, Dickinson and Company was used. As the antibodies used to stain the megakaryocytes and the platelets, used were a Phycoerythrin (PE)-modified anti-human CD42a (GPIX) antibody, a PE-modified anti-human CD42b (GPIbα) antibody, and an allophycocyanin (APC)-labelled anti-CD41a (integrin αIIbbeta3 complex, HIP8 clone) antibody (manufactured by BD Bioscience). Additionally, in order to accurately measure the absolute numbers of the megakaryocytes and the platelets, the cells were stained with these antibodies, and the analysis was conducted by flow cytometry using TruCount beads (manufactured by BD Bioscience), also.

[8] = biological target: T5, Matrix metalloproteinase 3 (MMP-3) (Homo sapiens, UniProt P08254); assay: Enzyme inhibition experiment, MMP-3; type: biochemical; settings: 3168 substrate, 37° C., 4 hours
T5 construct: purchased Calbiochem 444217
T5 sequence (P08254 100-272 limits assumed): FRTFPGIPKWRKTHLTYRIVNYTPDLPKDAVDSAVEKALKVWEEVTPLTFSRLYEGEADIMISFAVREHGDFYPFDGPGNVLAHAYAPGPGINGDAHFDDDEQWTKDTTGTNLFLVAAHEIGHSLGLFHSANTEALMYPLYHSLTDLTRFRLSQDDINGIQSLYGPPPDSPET
Experimental: Matrix metalloproteinase 3 (MMP-3) (manufactured by Calbiochem, product number: 444217)
3168 substrate (MOCAc-Arg-Pro-Lys-Pro-Val-Glu-Nva-Trp-Arg-Lys(Dnp)-NH2, manufactured by Peptide Institute, Inc.): excitation wavelength at 320 nm, emission wavelength at 405 nm, and 3163 substrate (MOCAc-Pro-Leu-Gly-Leu-A2pr(Dnp)-Ala-Arg-NH2, manufactured by Peptide Institute, Inc.): excitation wavelength at 320 nm, emission wavelength at 405 nm.
as §1

Row | Compound | function-maintaining effect on human peripheral blood-derived platelets (dot plot CD41/CD42b) [1] | IC50 [2] | inhibitory activity on TACE expressed on the macrophage-like cells (in words) [3] | IC50 [3] | IC50 [4] | IC50 [5] | function-maintaining effect on human peripheral blood PRP [6] | inhibitory effect on GPIbα shedding compared with 50 μM GM6001 ([7]; Test Example 5, S-45282 at 5 μM) | inhibition of ADAM17-mediated GPIbα shedding (CD42b(+) percentage) ([7]; Test Example 5, added for 2 days or 8 days, GM6001 50 μM, S-45282 5 μM or 50 μM) | number of platelets obtained ([7]; Test Example 5, added for 2 days, 50 μM GM6001, 5 μM S-45282) | IC50 [8] | inhibition of ADAM17-mediated GPIbα shedding ([7]; Test Example 6, 8 days, S-45457 5 μM or 50 μM, GM6001 50 μM) | toxicity to cells (total number of platelets) ([7]; Test Example 7, ES cells and differentiated cells, 1.5 to 50 μM, 8 days) | concentration dependency of inhibition of GPIbα shedding ([7]; Test Example 7, ES cells, S-45457 1.5 to 50 μM, 8 days)
1 | CC#CCOc1ccc(S(=O)(=O)CC(c2ccc(CN(CC)CC)cc2)N(O)C=O)cc1 (stereo not shown) [Compound I-1, N-[2-(4-But-2-ynyloxybenzenesulfonyl)-1-(4-diethylaminomethylphenyl)ethyl]-N-hydroxyformamide] | strong function-maintaining effect on human peripheral blood-derived platelets but not as strong as S-45457 | > 100 µM | inhibitory activity was confirmed | 1.2 µM | 0.55 µM | 11 µM | strong effect of maintaining a function of human peripheral blood PRP | inhibitory effect equivalent to 50 μM GM6001 | inhibit ADAM17-mediated GPIbα shedding | approximately the same | 8.3 µM |  |  | 
2 | CC#CCOc1ccc(S(=O)(=O)CC(c2ccc(CNS(C)(=O)=O)cc2)N(O)C=O)cc1 (stereo not shown) [Compound I-4, N-{4-[2-(4-But-2-ynyloxybenzenesulfonyl)-1-(formylhydroxyamino)ethyl]benzyl}methanesulfonamide] | suppresses ADAM17-mediated GPIbα (CD42b) shedding | > 100 µM | inhibitory activity was confirmed | 0.625 µM | 0.7 µM | 11 µM | capable of continuously suppressing ADAM17-mediated GPIbα (CD42b) shedding even incubated for 72 hours |  |  |  | 6.5 µM | inhibits ADAM17-mediated GPIbα shedding | low toxicity | inhibit ADAM17-mediated GPIbα shedding in a manner dependent on the added concentration
